Laboratory results from ChEMBL document CHEMBL1201862, “PubChem BioAssay data set” (2004).
Values joined by “and” are separate entries in the source; they are usually repeats but may differ in a detail not shown here. Equal entries are not always repeated.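 Compound exposure: 48 hours, 5 concentrations, 96-well plates. Here, GI50 denotes the concentration required for 50% inhibition of growth.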 Active and inactive are the calls of the source. No stated cut-off is given here; in the data, active = GI50 up to about 1.1 µM and inactive = higher.

Tests used:
Assay in all cases: NCI tumour cell line growth inhibition, 48 h
[1] = system: LOX IMVI
[2] = system: MDA-MB-231
[3] = system: HOP-62
[4] = system: CAKI-1
[5] = system: TK-10
[6] = system: BT-549
[7] = system: OVCAR-5
[8] = system: NCI-H226
[9] = system: HCC 2998
[10] = system: M14
[11] = system: SF-268
[12] = system: IGROV-1
[13] = system: PC-3
[14] = system: SR
[15] = system: SW-620
[16] = system: MDA-MB-435
[17] = system: HT-29
[18] = system: HCT-15
[19] = system: U-251
[20] = system: KM12
[21] = system: NCI-H23
[22] = system: OVCAR-4
[23] = system: SF-295
[24] = system: OVCAR-3
[25] = system: A549
[26] = system: NCI-H460
[27] = system: SNB-19
[28] = system: Hs-578T
[29] = system: T47D
[30] = system: UACC-62
[31] = system: A498
[32] = system: NCI-H522
[33] = system: RXF 393
[34] = system: MOLT-4
[35] = system: UACC-257
[36] = system: DU-145
[37] = system: SK-MEL-28
[38] = system: SK-MEL-5
[39] = system: SK-MEL-2
[40] = system: OVCAR-8
[41] = system: UO-31
[42] = system: EKVX
[43] = system: HOP-92
[44] = system: K562
[45] = system: ACHN
[46] = system: Malme-3M
[47] = system: NCI/ADR-RES
[48] = system: 786-0
[49] = system: MDA-N
[50] = system: SN12C
[51] = system: RPMI-8226
[52] = system: CCRF-CEM
[53] = system: HCT-116
[54] = system: SNB-75
[55] = system: HL-60
[56] = system: SK-OV-3
[57] = system: COLO 205
[58] = system: SF-539
[59] = system: MCF7

## O=[N+]([O-])c1ccc(Nc2nc3ccccc3s2)cc1
[1]
  GI50: 14.9 µM (inactive)
[2]
  GI50: 18 µM (inactive)
[3]
  GI50: 29.2 µM (inactive)
[4]
  GI50: > 100 µM (inactive)
[5]
  GI50: 33.7 µM (inactive)
[6]
  GI50: 27.2 µM (inactive)
[7]
  GI50: 23 µM (inactive)
[8]
  GI50: 63 µM (inactive)
[9]
  GI50: 25.2 µM (inactive)
[10]
  GI50: 26.7 µM (inactive)
[11]
  GI50: 26.3 µM (inactive)
[12]
  GI50: 3.94 µM (inactive)
[13]
  GI50: 16.3 µM (inactive)
[14]
  GI50: 10.7 µM (inactive)
[15]
  GI50: 35 µM (inactive)
[16]
  GI50: 37.9 µM (inactive)
[17]
  GI50: 34.6 µM (inactive)
[18]
  GI50: 28.8 µM
[19]
  GI50: 17.3 µM (inactive)
[20]
  GI50: 51.6 µM (inactive)
[21]
  GI50: 16 µM (inactive)
[22]
  GI50: 43.2 µM (inactive)
[23]
  GI50: 37.6 µM (inactive)
[24]
  GI50: 18.7 µM (inactive)
[25]
  GI50: 47.6 µM (inactive)
[26]
  GI50: 29.4 µM (inactive)
[27]
  GI50: 38.5 µM (inactive)
[28]
  GI50: 29.9 µM (inactive)
[29]
  GI50: 3.03 µM (inactive)
[30]
  GI50: 20.2 µM (inactive)
[31]
  GI50: 30.4 µM (inactive)
[32]
  GI50: 14.4 µM (inactive)
[33]
  GI50: 14.7 µM (inactive)
[34]
  GI50: 8.36 µM (inactive)
[35]
  GI50: 25.8 µM (inactive)
[36]
  GI50: 69.8 µM (inactive)
[37]
  GI50: 46.2 µM (inactive)
[38]
  GI50: 21.6 µM (inactive)
[39]
  GI50: 25.5 µM (inactive)
[40]
  GI50: 40.7 µM (inactive)
[41]
  GI50: 18.5 µM (inactive)
[42]
  GI50: 18.7 µM (inactive)
[43]
  GI50: 26.2 µM (inactive)
[44]
  GI50: 12.2 µM (inactive)
[45]
  GI50: 29.5 µM (inactive)
[46]
  GI50: 15.9 µM (inactive)
[47]
  GI50: 34.9 µM (inactive)

## CC(=O)OCC1OC(OC(C)(C)CC/C=C(\C)[C@@H]2C/C=C(\C)CC/C=C(\C)CC2)C(O)C(O)C1OC(C)=O (some centres undefined)
[48]
  GI50: 39.4 µM (inactive) and 23.6 µM (inactive)
[1]
  GI50: 18.5 µM (inactive) and 21.3 µM (inactive)
[49]
  GI50: 24.7 µM (inactive) and 19.7 µM (inactive)
[6]
  GI50: 33.9 µM (inactive) and 19.7 µM (inactive)
[50]
  GI50: 32 µM (inactive) and 20 µM (inactive)
[51]
  GI50: 25.5 µM (inactive) and 19.7 µM (inactive)
[11]
  GI50: 27 µM (inactive) and 19.8 µM (inactive)
[12]
  GI50: 17.5 µM (inactive) and 21.6 µM (inactive)
[15]
  GI50: 26.1 µM (inactive) and 24.2 µM (inactive)
[16]
  GI50: 32.8 µM (inactive) and 20.2 µM (inactive)
[17]
  GI50: 24.5 µM (inactive) and 14.9 µM (inactive)
[52]
  GI50: 22.5 µM (inactive) and 14 µM (inactive)
[20]
  GI50: 26.7 µM (inactive) and 19 µM (inactive)
[23]
  GI50: 22.9 µM (inactive) and 42.3 µM (inactive)
[53]
  GI50: 25 µM (inactive) and 22.9 µM (inactive)
[54]
  GI50: 17.4 µM (inactive) and 17.1 µM (inactive)
[26]
  GI50: 17.9 µM (inactive) and 23.2 µM (inactive)
[28]
  GI50: 0.3 µM (active)
[32]
  GI50: 18.9 µM (inactive) and 11.3 µM (inactive)
[55]
  GI50: 28.5 µM (inactive)
[33]
  GI50: > 100 µM (inactive)
[34]
  GI50: 17 µM (inactive) and > 10 µM (inactive)
[38]
  GI50: 17.5 µM (inactive) and 30.1 µM (inactive)
[40]
  GI50: 20.6 µM (inactive) and 28.6 µM (inactive)
[44]
  GI50: 28.7 µM (inactive) and 22.4 µM (inactive)

## Cc1ccccc1N/C(N)=N/C#N
[48]
  GI50: > 100 µM (inactive)
[56]
  GI50: > 100 µM (inactive)
[1]
  GI50: > 100 µM (inactive)
[2]
  GI50: > 100 µM (inactive)
[3]
  GI50: > 100 µM (inactive)
[4]
  GI50: > 100 µM (inactive)
[57]
  GI50: > 100 µM (inactive)
[5]
  GI50: > 100 µM (inactive)
[49]
  GI50: > 100 µM (inactive)
[6]
  GI50: > 100 µM (inactive)
[7]
  GI50: > 100 µM (inactive)
[50]
  GI50: > 100 µM (inactive)
[9]
  GI50: > 100 µM (inactive)
[10]
  GI50: > 100 µM (inactive)
[51]
  GI50: > 100 µM (inactive)
[11]
  GI50: > 100 µM (inactive)
[12]
  GI50: > 100 µM (inactive)
[13]
  GI50: > 100 µM (inactive)
[14]
  GI50: > 100 µM (inactive)
[15]
  GI50: > 100 µM (inactive)
[16]
  GI50: > 100 µM (inactive)
[17]
  GI50: > 100 µM (inactive)
[18]
  GI50: > 100 µM
[19]
  GI50: > 100 µM (inactive)
[52]
  GI50: > 100 µM (inactive)
[21]
  GI50: > 100 µM (inactive)
[22]
  GI50: > 100 µM (inactive)
[53]
  GI50: > 100 µM (inactive)
[58]
  GI50: > 100 µM (inactive)
[54]
  GI50: > 100 µM (inactive)
[25]
  GI50: > 100 µM (inactive)
[26]
  GI50: > 100 µM (inactive)
[27]
  GI50: > 100 µM (inactive)
[28]
  GI50: > 100 µM (inactive)
[30]
  GI50: > 100 µM (inactive)
[55]
  GI50: > 100 µM (inactive)
[33]
  GI50: > 100 µM (inactive)
[59]
  GI50: > 100 µM (inactive)
[34]
  GI50: > 100 µM (inactive)
[35]
  GI50: > 100 µM (inactive)
[36]
  GI50: > 100 µM (inactive)
[37]
  GI50: > 100 µM (inactive)
[38]
  GI50: > 100 µM (inactive)
[39]
  GI50: > 100 µM (inactive)
[40]
  GI50: > 100 µM (inactive)
[41]
  GI50: > 100 µM (inactive)
[42]
  GI50: > 100 µM (inactive)
[43]
  GI50: 97.7 µM (inactive)
[44]
  GI50: > 100 µM (inactive)
[45]
  GI50: > 100 µM (inactive)
[46]
  GI50: > 100 µM (inactive)
[47]
  GI50: > 100 µM (inactive)
